Source: US8883963B2 (Cadila Healthcare Limited, priority 2007, dated 2014)

What was measured:
[1] = system: RIN5F (Rat Insulinoma) cells; assay: In vitro glucose-dependent insulin secretion (RIN5F cell assay screening protocol); format: cell-based; details: 16.7 mM glucose load
Human GLP-1 receptor = target: T1, Human GLP-1 receptor (Homo sapiens, UniProt P43220); assay: In vitro Human GLP-1 R agonist activity (cyclic AMP determination) in CHO/human GLP1R cells; format: cell-based
T1 construct: The full-length cDNA was cloned in pcDNA3.1(+); expressed in transfected cells

human glucagon receptor = target: T2, human glucagon receptor (Homo sapiens, UniProt P47871); assay: In vitro human glucagon antagonist activity (inhibition of cAMP production) in CHO/human glucagon R cells; format: cell-based; details: with saturated concentration of glucagon peptide
T2 construct: The full-length cDNA was cloned in pcDNA3.1 (Invitrogen); expressed in transfected cells

DPP IV = DPP IV (Homo sapiens, UniProt P27487); assay: Stability against DPP IV enzyme; format: in vitro ADME; details: 37° C.; for % degradation of peptidomimetics in 24 h when incubated with DPP-IV enzyme: 2 μM peptidomimetic; for half-life at 2 μM: DPP IV enzyme, pH 7.8, 2 μM peptidomimetic, read-out: half-life (t1/2) when incubated with DPP-IV enzyme
Description: (§1) Reactions were terminated by the addition of TFA/H2O (15 mL, 10% (v/v)). […] The column was equilibrated with TFA/H20, at a flow rate of 1 mL/min.

[2] = Stability in human plasma; format: in vitro ADME; details: 2 μM peptidomimetic, pooled human plasma, 37° C.; for half-life at 2 μM: pH 7.8, read-out: half-life (t1/2) when incubated with human plasma
Description: as §1

[3] = Stability in simulated gastric fluid; format: in vitro ADME; details: 2 μM peptidomimetic, simulated gastric fluid pH 1.5, 37° C.; for half-life at 2 μM: read-out: half-life (t1/2) when incubated with simulated gastric fluid
Description: as §1

[4] = Stability in simulated intestinal fluid; format: in vitro ADME; details: 2 μM peptidomimetic, simulated intestinal fluid pH 7.5, 37° C.; for half-life at 2 μM: read-out: half-life (t1/2) when incubated with simulated intestinal fluid
Description: as §1

[5] = Stability in liver microsomes; format: in vitro ADME; details: 2 μM peptidomimetic, human liver microsomes, 37° C.; for half-life at 2 μM: pH 7.8, read-out: half-life (t1/2) when incubated with liver microsomes
Description: as §1

Chain of DPP IV (P27487 whole entry, species assumed): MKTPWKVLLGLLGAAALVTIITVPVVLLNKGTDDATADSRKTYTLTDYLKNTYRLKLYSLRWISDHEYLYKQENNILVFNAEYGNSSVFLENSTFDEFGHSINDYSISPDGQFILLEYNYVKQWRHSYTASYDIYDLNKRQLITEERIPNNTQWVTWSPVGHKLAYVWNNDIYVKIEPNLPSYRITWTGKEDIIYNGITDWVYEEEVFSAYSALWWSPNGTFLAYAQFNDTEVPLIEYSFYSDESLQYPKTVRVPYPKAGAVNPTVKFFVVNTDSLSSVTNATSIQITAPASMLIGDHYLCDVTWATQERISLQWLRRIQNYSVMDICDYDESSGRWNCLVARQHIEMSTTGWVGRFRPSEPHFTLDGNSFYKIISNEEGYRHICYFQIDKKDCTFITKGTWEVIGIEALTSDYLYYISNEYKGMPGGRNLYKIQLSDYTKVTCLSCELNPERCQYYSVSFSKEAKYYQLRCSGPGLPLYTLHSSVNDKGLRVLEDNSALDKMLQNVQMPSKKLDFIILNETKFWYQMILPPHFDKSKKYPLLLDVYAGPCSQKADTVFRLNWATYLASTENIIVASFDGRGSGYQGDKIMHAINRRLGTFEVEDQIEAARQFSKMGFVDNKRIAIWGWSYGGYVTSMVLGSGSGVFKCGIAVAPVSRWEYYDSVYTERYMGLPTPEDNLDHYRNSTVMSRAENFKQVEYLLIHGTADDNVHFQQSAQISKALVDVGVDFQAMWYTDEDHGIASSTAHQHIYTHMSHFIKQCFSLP
T2 sequence (P47871 26-477): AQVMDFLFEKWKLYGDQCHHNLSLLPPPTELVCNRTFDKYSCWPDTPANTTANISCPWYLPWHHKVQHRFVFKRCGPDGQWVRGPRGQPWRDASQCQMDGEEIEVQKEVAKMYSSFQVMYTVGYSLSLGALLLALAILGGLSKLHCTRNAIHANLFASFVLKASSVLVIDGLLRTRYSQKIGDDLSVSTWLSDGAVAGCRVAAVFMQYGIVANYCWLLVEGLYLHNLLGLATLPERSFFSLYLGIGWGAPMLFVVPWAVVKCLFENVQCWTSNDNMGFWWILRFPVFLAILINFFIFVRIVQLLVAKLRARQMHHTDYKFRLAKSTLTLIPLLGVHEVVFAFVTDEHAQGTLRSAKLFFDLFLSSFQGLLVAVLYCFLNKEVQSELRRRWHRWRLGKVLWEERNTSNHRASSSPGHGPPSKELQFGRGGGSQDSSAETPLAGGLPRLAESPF
T1 sequence (P43220 24-463): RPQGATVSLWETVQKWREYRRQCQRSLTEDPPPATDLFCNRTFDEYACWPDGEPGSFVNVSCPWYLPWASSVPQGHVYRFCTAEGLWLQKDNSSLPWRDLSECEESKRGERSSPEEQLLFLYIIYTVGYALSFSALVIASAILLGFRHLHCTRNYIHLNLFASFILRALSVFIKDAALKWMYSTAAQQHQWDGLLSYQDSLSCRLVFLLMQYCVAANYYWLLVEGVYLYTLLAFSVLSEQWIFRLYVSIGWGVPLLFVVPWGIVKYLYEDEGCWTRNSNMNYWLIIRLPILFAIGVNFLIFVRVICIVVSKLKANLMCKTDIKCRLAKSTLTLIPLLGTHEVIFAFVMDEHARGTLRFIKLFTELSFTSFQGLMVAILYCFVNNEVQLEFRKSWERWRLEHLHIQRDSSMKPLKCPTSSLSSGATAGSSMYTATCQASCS

Row | SMILES | Insulin secretion ([1]; 0.1 nM test compd.) | Insulin secretion ([1]; 1 nM test compd.) | Insulin secretion ([1]; 10 nM test compd.) | Human GLP-1 R activity (cAMP release), % activity with respect to control (Human GLP-1 receptor; 1 nM test compound) | Human GLP-1 R activity (cAMP release), % activity with respect to control (Human GLP-1 receptor; 10 nM test compound) | Human GLP-1 R activity (cAMP release), % activity with respect to control (Human GLP-1 receptor; 100 nM test compound) | Human GLP-1 R activity (cAMP release), % activity with respect to control (Human GLP-1 receptor; 1 μM test compound) | Human GLP-1 R activity (cAMP release), % activity with respect to control (Human GLP-1 receptor; 10 μM test compound) | Human Glucagon receptor antagonistic activity shown as inhibition of cAMP production of Glucagon peptide (human glucagon receptor; 1 nM test compound) | Human Glucagon receptor antagonistic activity shown as inhibition of cAMP production of Glucagon peptide (human glucagon receptor; 10 nM test compound) | Human Glucagon receptor antagonistic activity shown as inhibition of cAMP production of Glucagon peptide (human glucagon receptor; 100 nM test compound) | Human Glucagon receptor antagonistic activity shown as inhibition of cAMP production of Glucagon peptide (human glucagon receptor; 1 μM test compound) | Human Glucagon receptor antagonistic activity shown as inhibition of cAMP production of Glucagon peptide (human glucagon receptor; 10 μM test compound) | % degradation of peptidomimetics in 24 h when incubated with DPP-IV enzyme (DPP IV) | half-life at 2 μM (DPP IV) | % degradation of peptidomimetics in 24 h when incubated with human plasma [2] | % degradation of peptidomimetics in 24 h when incubated with simulated gastric fluid [3] | % degradation of peptidomimetics in 24 h when incubated with simulated intestinal fluid [4] | % degradation of peptidomimetics in 24 h when incubated with liver microsomes [5] | half-life at 2 μM [5] | also measured
1 | CCc1cc(OC)ccc1-c1ccc(CC(NC(=O)[C@H](CC(=O)O)NC(=O)[C@H](CO)NC(=O)[C@@H](NC(=O)C(C)(Cc2ccccc2F)NC(=O)[C@@H](NC(=O)CNC(=O)C(CCC#N)NC(=O)C(C)(C)NC(=O)[C@@H](N)Cc2c[nH]cn2)[C@@H](C)O)[C@H](C)O)C(=O)NC(CCCc2ccccc2F)C(N)=O)cc1 (single isomer, unassigned) [compound 120] | 16.3 ± 0.15 pg/µg/h | 22.4 ± 0.21 pg/µg/h | 36.2 ± 0.11 pg/µg/h | 99 ± 0.12% | 99 ± 0.15% | 99 ± 0.18% | 99 ± 0.03% | 99 ± 0.09% | 0 pmol/ml/μg prt | 0 pmol/ml/μg prt | 0 pmol/ml/μg prt | 0 pmol/ml/μg prt | 0 pmol/ml/μg prt | 00% | > 24 h | 00% | 41% | 00% | 80% | 2 h | half-life at 2 μM [2]: > 24 h; half-life at 2 μM [3]: 4 h; half-life at 2 μM [4]: > 24 h
2 | CCc1cc(OC)ccc1-c1ccc(CC(NC(=O)[C@H](CC(=O)O)NC(=O)[C@H](CO)NC(=O)[C@@H](NC(=O)[C@H](Cc2ccccc2)NC(=O)[C@@H](NC(=O)CNC(=O)C(CCC#N)NC(=O)C(C)(C)NC(=O)[C@@H](N)Cc2c[nH]cn2)[C@@H](C)O)[C@@H](C)O)C(=O)NC(CCCc2ccccc2F)C(N)=O)cc1 (single isomer, unassigned) [compound 77] | 15.6 ± 0.33 pg/µg/h | 21.8 ± 0.16 pg/µg/h | 35.6 ± 0.26 pg/µg/h | 40 ± 0.09% | 81 ± 0.07% | 87 ± 0.04% | 95 ± 0.01% | 98 ± 0.08% | 20 ± 0.06 pmol/ml/μg prt | 18 ± 0.09 pmol/ml/μg prt | 16 ± 0.01 pmol/ml/μg prt | 14 ± 0.03 pmol/ml/μg prt | 12 ± 0.01 pmol/ml/μg prt | 74% | – | 75% | 100% | 100% | 100% | 0.5 h | half-life (t1/2) when incubated with human plasma [2]: (9) h; half-life at 2 μM [3]: 0.5 h; half-life at 2 μM [4]: 0.5 h
3 | CCc1cc(OC)ccc1-c1ccc(CC(NC(=O)[C@H](CC(=O)O)NC(=O)[C@H](CO)NC(=O)[C@@H](NC(=O)C(C)(Cc2ccccc2F)NC(=O)[C@@H](NC(=O)CNC(=O)C(CCC#N)NC(=O)C(C)(C)NC(=O)[C@@H](N)Cc2c[nH]cn2)[C@H](C)O)[C@H](C)O)C(=O)NC(CCCc2ccccc2F)C(N)=O)cc1 (single isomer, unassigned) [compound 116] | 16.4 ± 0.12 pg/µg/h | 22.7 ± 0.17 pg/µg/h | 36.6 ± 0.05 pg/µg/h | 55 ± 0.16% | 88 ± 0.13% | 92 ± 0.11% | 99 ± 0.07% | 99 ± 0.09% | 2 ± 0.03 pmol/ml/μg prt | 0 pmol/ml/μg prt | 0 pmol/ml/μg prt | 0 pmol/ml/μg prt | 0 pmol/ml/μg prt | 00% | > 24 h | 00% | 43% | 00% | 84% | 2 h | half-life at 2 μM [2]: > 24 h; half-life at 2 μM [3]: 4 h; half-life at 2 μM [4]: > 24 h
4 | CCc1cc(OC)ccc1-c1ccc(CC(NC(=O)[C@H](CC(=O)O)NC(=O)[C@H](CO)NC(=O)[C@@H](NC(=O)C(C)(Cc2ccccc2F)NC(=O)[C@@H](NC(=O)CNC(=O)C(CCC#N)NC(=O)C(C)(C)NC(=O)[C@@H](N)Cc2c[nH]cn2)[C@H](C)O)[C@H](C)O)C(=O)N(C)C(CCCc2ccccc2)C(N)=O)cc1 (single isomer, unassigned) [compound 130] | 17.1 ± 0.11 pg/µg/h | 23.1 ± 0.16 pg/µg/h | 37.0 ± 0.29 pg/µg/h | 39 ± 0.10% | 81 ± 0.08% | 89 ± 0.09% | 96 ± 0.11% | 99 ± 0.16% | 5 ± 0.04 pmol/ml/μg prt | 3 ± 0.02 pmol/ml/μg prt | 1 ± 0.11 pmol/ml/μg prt | 0 pmol/ml/μg prt | 0 pmol/ml/μg prt | 76% | 9 h | 78% | 12% | 55% | 79% | 1 h | half-life at 2 μM [2]: 8 h; half-life (t1/2) when incubated with simulated gastric fluid [3]: (8) h; half-life (t1/2) when incubated with simulated intestinal fluid [4]: (6) h
